Literature values, collected in patent publication US12648920B2, “Methods of administering glutathione precursors” (Neuronasal, Inc., priority 2020, dated 2026).

Conditions: oral

orally bioavailable: < 10%
Structure (SMILES): CC(=O)N[C@@H](CS)C(=O)O [NAC, N-acetylcysteine]
